Data reported in US8227499B2, “Substituted-aryl-(imidazole)-methyl)-phenyl compounds as subtype selective modulators of alpha 2B and/or alpha 2C adrenergic receptors” (Allergan, Inc., priority 2008, dated 2012).
Like-named read-outs stand apart in the source and are kept apart here.

Key:
alpha 2B receptor = biological target: T1, alpha 2B receptor (Homo sapiens, UniProt P18089); test: Receptor Selection and Amplification technology (RSAT) assay, alpha 2B; format: cell-based; conditions: for Alpha 2B intrinsic activity (relative efficacy): RSAT, number in parentheses, ratio of maximal effect to that of standard full agonist brimonidine (UK14304)
T1 construct: expressed in transfected cells; host or cells: NIH-3T3 cells
T1 sequence (P18089 1-450): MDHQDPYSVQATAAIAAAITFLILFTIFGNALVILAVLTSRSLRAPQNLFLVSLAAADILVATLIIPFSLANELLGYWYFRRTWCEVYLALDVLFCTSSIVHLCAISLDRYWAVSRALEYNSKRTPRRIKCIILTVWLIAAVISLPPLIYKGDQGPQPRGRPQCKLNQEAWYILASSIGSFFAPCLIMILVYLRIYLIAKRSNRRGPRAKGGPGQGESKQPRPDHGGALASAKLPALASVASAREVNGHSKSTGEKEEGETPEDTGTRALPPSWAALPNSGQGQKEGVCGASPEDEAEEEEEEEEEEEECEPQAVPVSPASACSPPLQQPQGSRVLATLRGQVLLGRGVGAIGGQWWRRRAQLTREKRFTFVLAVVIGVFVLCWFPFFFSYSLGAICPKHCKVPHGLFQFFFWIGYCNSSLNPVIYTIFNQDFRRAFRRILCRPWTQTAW
Protocol: (§1) The RSAT assay measures a receptor-mediated loss of contact inhibition that results in selective proliferation of receptor-containing cells in a mixed population of confluent cells. The increase in cell number is assessed with an appropriate transfected marker gene such as β-galactosidase, the activity of which can be easily measured in a 96-well format. Receptors that activate the G protein, Gq, elicit this response. Alpha 2 receptors, which normally couple to Gi, activate the RSAT response when coexpressed with a hybrid Gq protein that has a G; receptor recognition domain, called Gq/i5.
(§2) NIH-3T3 cells are plated at a density of 2×10^6 cells in 15 cm dishes and maintained in Dulbecco's modified Eagle's medium supplemented with 10% calf serum. One day later, cells are cotransfected by calcium phosphate precipitation with mammalian expression plasmids encoding p-SV-β-galactosidase (5-10 μg), receptor (1-2 μg) and G protein (1-2 μg). 40 μg salmon sperm DNA may also be included in the transfection mixture. Fresh media is added on the following day and 1-2 days later, cells are harvested and frozen in 50 assay aliquots. Cells are thawed and 100 μl added to 100 μl aliquots of various concentrations of drugs in triplicate in 96-well dishes. Incubations continue 72-96 hr at 37° C. After washing with phosphate-buffered saline, .E-backward.-galactosidase enzyme activity is determined by adding 200 μl of the chromogenic substrate (consisting of 3.5 mM o-nitrophenyl-beta-D-galactopyranoside and 0.5% nonidet P-40 in phosphate buffered saline), incubating overnight at 30° C. and measuring optical density at 420 nm. The absorbance is a measure of enzyme activity, which depends on cell number and reflects a receptor-mediated cell proliferation. The efficacy or intrinsic activity is calculated as a ratio of the maximal effect of the drug to the maximal effect of a standard full agonist for each receptor subtype. Brimonidine, also called UK14304, the chemical structure of which is shown below, is used as the standard agonist for the alpha 2A, alpha 2B and alpha 2C receptors.

alpha 2C receptor = biological target: T2, alpha 2C receptor (Homo sapiens, UniProt P18825); test: Receptor Selection and Amplification technology (RSAT) assay, alpha 2C; format: cell-based; conditions: for Alpha 2C intrinsic activity (relative efficacy): RSAT, number in parentheses, ratio of maximal effect to that of standard full agonist brimonidine (UK14304)
T2 construct: expressed in transfected cells; host or cells: NIH-3T3 cells
T2 sequence (P18825 1-462): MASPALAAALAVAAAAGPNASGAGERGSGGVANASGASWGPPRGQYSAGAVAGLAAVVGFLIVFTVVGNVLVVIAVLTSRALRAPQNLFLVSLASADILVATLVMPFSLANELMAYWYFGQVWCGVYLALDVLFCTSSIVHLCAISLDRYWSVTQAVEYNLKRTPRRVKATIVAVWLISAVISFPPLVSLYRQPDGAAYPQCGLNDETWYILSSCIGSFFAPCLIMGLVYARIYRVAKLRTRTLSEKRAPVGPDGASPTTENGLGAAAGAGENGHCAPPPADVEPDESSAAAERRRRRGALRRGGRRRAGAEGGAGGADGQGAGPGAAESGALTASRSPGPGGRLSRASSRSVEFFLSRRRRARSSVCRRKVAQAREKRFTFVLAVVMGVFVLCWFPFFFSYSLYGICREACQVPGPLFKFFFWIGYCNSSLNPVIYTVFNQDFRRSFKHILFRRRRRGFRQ
Excerpt: The compounds disclosed herein are agonists of alpha 2B/2C adrenergic receptors. […] 76, pp. 308-311 (incorporated herein by reference) and is also described below. Another reference pertinent to this assay is Conklin et al. (1993) Nature 363: 274-6, also incorporated herein by reference.
as §1, §2

[1] = RSAT in transfected NIH-3T3 cells, number outside parentheses, read-out: Alpha 2B potency (EC50)
[2] = RSAT in transfected NIH-3T3 cells, number outside parentheses, read-out: Alpha 2C potency (EC50)

Row | SMILES | EC50 (alpha 2B receptor; [1]) [nM] | Alpha 2B intrinsic activity (relative efficacy) (alpha 2B receptor) | EC50 (alpha 2C receptor; [2]) [nM] | Alpha 2C intrinsic activity (relative efficacy) (alpha 2C receptor) | EC50 (alpha 2B receptor) [nM] | EC50 (alpha 2C receptor) [nM]
1 | Clc1cccc(C(c2ccccc2)c2c[nH]cn2)c1Cl (stereo not shown) | 6.9 | 1.19 | 332 | .40 |  | 
2 | Cc1cccc(C(c2ccccc2)c2c[nH]cn2)c1C (stereo not shown) | 1.8 | 1.23 | 91 | 1.02 |  | 
3 | Fc1c(C(c2ccccc2)c2c[nH]cn2)cccc1C(F)(F)F (stereo not shown) | 21 | .89 |  | No Data (.12) |  | 
4 | Fc1cccc(C(c2ccccc2)c2c[nH]cn2)c1F (stereo not shown) | 62 | 1.10 |  | No Data (.22) |  | 
5 | Fc1c(Cl)cccc1C(c1ccccc1)c1c[nH]cn1 (stereo not shown) | 44 | .91 |  | No Data (.21) |  | 
6 | Cc1c(Cl)cccc1C(c1ccccc1)c1c[nH]cn1 (stereo not shown) | 18 | 1.35 | 411 | .35 |  | 
7 | Cc1ccccc1C(c1ccccc1)c1c[nH]cn1 (stereo not shown) |  | .99 |  | .64 | 55 | 1900
8 | Fc1cccc(C(c2ccccc2)c2c[nH]cn2)c1 (stereo not shown) |  | 1.00 |  | No Data (.15) | 332 | 
